Assay [1] deals with T1, Prostaglandin D2 receptor 2 (Homo sapiens, UniProt Q9Y5Y4).
T1 sequence (Q9Y5Y4 whole entry): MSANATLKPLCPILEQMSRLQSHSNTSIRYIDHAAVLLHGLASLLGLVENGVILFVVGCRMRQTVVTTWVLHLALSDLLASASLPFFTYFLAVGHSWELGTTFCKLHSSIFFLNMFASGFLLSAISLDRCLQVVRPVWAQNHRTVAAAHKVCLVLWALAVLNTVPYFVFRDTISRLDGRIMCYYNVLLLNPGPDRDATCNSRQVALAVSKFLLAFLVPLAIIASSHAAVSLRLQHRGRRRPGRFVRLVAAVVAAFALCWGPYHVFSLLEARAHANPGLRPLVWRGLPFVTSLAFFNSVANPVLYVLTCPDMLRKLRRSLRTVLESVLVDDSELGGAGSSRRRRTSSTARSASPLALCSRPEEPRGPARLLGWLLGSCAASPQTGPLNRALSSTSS
The assay can be described thus: Radioligand Binding Assay.

Assay [2] has as its target T1, Prostaglandin D2 receptor 2. The assay can be described thus: Radioligand Binding Assay and [35S] GTP-gamma-S Binding Assay. The following applies: for IC50: pH 7.4, 22 °C. The protocol:
(§1) A scintillation proximity assay was used for radioligand competition and saturation binding assays. Nonspecific binding was determined in the presence of 1 uM PGD2. Binding activity was determined by using a 1450 Microbeta scintillation counter (Wallac, UK). Ki values were calculated by using the Cheng-Prusoff equation, and represent the average of at least three independent dose-response experiments. EC50/IC50 values were obtained from GTP-gamma-S binding assay, which measures antagonist activity of compounds in the presence of 80 nM PGD2.
In general terms: Binding of GTPγS marks nucleotide exchange on a G protein.

Assay [3] has as its target T2, Prostaglandin D2 receptor 2 (Mus musculus, UniProt Q9Z2J6).
T2 sequence (Q9Z2J6 whole entry): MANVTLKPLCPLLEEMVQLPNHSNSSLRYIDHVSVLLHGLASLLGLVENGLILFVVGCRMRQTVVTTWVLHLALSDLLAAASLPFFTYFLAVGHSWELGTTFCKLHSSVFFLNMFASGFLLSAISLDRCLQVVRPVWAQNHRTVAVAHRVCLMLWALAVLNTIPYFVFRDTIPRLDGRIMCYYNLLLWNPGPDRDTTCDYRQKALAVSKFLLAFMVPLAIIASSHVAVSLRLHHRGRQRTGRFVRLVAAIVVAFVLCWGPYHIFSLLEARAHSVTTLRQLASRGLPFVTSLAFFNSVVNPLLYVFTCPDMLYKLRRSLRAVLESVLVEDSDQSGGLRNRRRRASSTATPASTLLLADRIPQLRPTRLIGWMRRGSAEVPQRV
The assay is described as above. The protocol: as §1

The values that follow come from BindingDB's records for doi:10.1021/jm701383e (Merck Serono, 2008).

As usually defined, the EC50 is the midpoint of the concentration-response curve. As to `O=C(O)CN1C(=O)[C@@]2(CC(=O)N(Cc3cc(Cl)ccc3F)C2=O)c2cc(Cl)ccc21` [2-[(3R)-5-chloro-1'-[(5-chloro-2-fluorophenyl)methyl]-1,2-dihydrospiro[indole-3,3'-pyrrolidine]-2,2',5'-trione]acetic acid], the EC50 in assay [1] stood at 0.066 µM.
In turn, `Cc1noc(-c2ccccc2)c1CN1CC2(CC1=O)C(=O)N(CC(=O)O)c1ccc(Cl)cc12` (configuration not stated) [2-{5-chloro-1'-[(3-methyl-5-phenyl-1,2-oxazol-4-yl)methyl]-1,2-dihydrospiro[indole-3,3'-pyrrolidine]-2,5'-dione}acetic acid] registered an EC50 in assay [1] of 0.019 µM.
Still for that read-out and setting: for `O=C(O)CN1C(=O)C2(CC(=O)N(Cc3cc(Cl)cc(Cl)c3)C2=O)c2cc(Cl)ccc21` (configuration not stated) [2-{5-chloro-1'-[(3,5-dichlorophenyl)methyl]-1,2-dihydrospiro[indole-3,3'-pyrrolidine]-2,2',5'-trione}acetic acid] the value was 0.082 µM.
Broadly, the Ki is a measure of affinity in units of concentration, obtained from inhibition or displacement. Compound `O=C(O)CN1C(=O)[C@]2(CC(=O)N(Cc3cc(Cl)ccc3F)C2)c2cc(Cl)ccc21` [2-[(3R)-5-chloro-1'-[(5-chloro-2-fluorophenyl)methyl]-1,2-dihydrospiro[indole-3,3'-pyrrolidine]-2,5'-dione]acetic acid] had a Ki in assay [2] of 0.683 µM.
As usually defined, the IC50 is the point on the concentration scale where inhibition reaches its midpoint. Low readings indicate higher potency, high ones lower potency. Compound `O=C(O)CN1C(=O)C2(CC(=O)N(Cc3ccccc3F)C2=O)c2cc(Cl)ccc21` (configuration not stated) [2-{5-chloro-1'-[(2-fluorophenyl)methyl]-1,2-dihydrospiro[indole-3,3'-pyrrolidine]-2,2',5'-trione}acetic acid] yielded an IC50 in assay [2] of 0.212 µM.
Take `O=C(O)CN1C(=O)[C@@]2(CC(=O)N(Cc3cc(Cl)ccc3F)C2)c2cc(Cl)ccc21` [2-[(3S)-5-chloro-1'-[(5-chloro-2-fluorophenyl)methyl]-1,2-dihydrospiro[indole-3,3'-pyrrolidine]-2,5'-dione]acetic acid]: the results for the Ki in assay [3] and in assay [2] were 0.088 µM and 0.013 µM, respectively.
With `Cc1noc(-c2ccccc2)c1CN1C(=O)CC2(C1=O)C(=O)N(CC(=O)O)c1ccc(Cl)cc12` (configuration not stated) [2-{5-chloro-1'-[(3-methyl-5-phenyl-1,2-oxazol-4-yl)methyl]-1,2-dihydrospiro[indole-3,3'-pyrrolidine]-2,2',5'-trione}acetic acid], the EC50 in assay [1] was 0.023 µM. This lies in the double-digit nanomolar range.
For `O=C(O)CN1C(=O)C2(CC(=O)N(Cc3ccccc3)C2=O)c2cc(Cl)ccc21` (configuration not stated) [2-{1'-benzyl-5-chloro-1,2-dihydrospiro[indole-3,3'-pyrrolidine]-2,2',5'-trione}acetic acid], in assay [2], the IC50 came to 0.418 µM.
In turn, `Cc1nc(CN2C(=O)CC3(C2=O)C(=O)N(CC(=O)O)c2ccc(Cl)cc23)cs1` (configuration not stated) [2-{5-chloro-1'-[(2-methyl-1,3-thiazol-4-yl)methyl]-1,2-dihydrospiro[indole-3,3'-pyrrolidine]-2,2',5'-trione}acetic acid] had an EC50 in assay [1] of 0.236 µM.
The same measure, in the same setting: then `Cc1onc(-c2ccccc2)c1CN1C(=O)CC2(C1=O)C(=O)N(CC(=O)O)c1ccc(Cl)cc12` (configuration not stated) [2-{5-chloro-1'-[(5-methyl-3-phenyl-1,2-oxazol-4-yl)methyl]-1,2-dihydrospiro[indole-3,3'-pyrrolidine]-2,2',5'-trione}acetic acid], with 0.021 µM; and `O=C(O)CN1C(=O)C2(CC(=O)N(Cc3cc(Cl)ccc3F)C2=O)c2cc(Cl)ccc21` (configuration not stated) [2-{5-chloro-1'-[(5-chloro-2-fluorophenyl)methyl]-1,2-dihydrospiro[indole-3,3'-pyrrolidine]-2,2',5'-trione}acetic acid], with 0.048 µM; and `O=C(O)CN1C(=O)[C@@]2(CC(=O)N(Cc3cccc(Cl)c3)C2=O)c2cc(Cl)ccc21` [2-[(3R)-5-chloro-1'-[(3-chlorophenyl)methyl]-1,2-dihydrospiro[indole-3,3'-pyrrolidine]-2,2',5'-trione]acetic acid], with 0.107 µM.
On the same count and under the same terms, for `Cc1noc(C)c1CN1C(=O)CC2(C1=O)C(=O)N(CC(=O)O)c1ccc(Cl)cc12` (configuration not stated) [2-{5-chloro-1'-[(3,5-dimethyl-1,2-oxazol-4-yl)methyl]-1,2-dihydrospiro[indole-3,3'-pyrrolidine]-2,2',5'-trione}acetic acid] the value was 0.22 µM; for `O=C(O)CN1C(=O)C2(CC(=O)N(Cc3csc(-c4cccc(Cl)c4)n3)C2=O)c2cc(Cl)ccc21` (configuration not stated) [2-(5-chloro-1'-{[2-(3-chlorophenyl)-1,3-thiazol-4-yl]methyl}-1,2-dihydrospiro[indole-3,3'-pyrrolidine]-2,2',5'-trione)acetic acid], 0.048 µM.
`O=C(O)CN1C(=O)C2(CC(=O)N(Cc3cccc(Cl)c3)C2=O)c2cc(Cl)ccc21` (configuration not stated) [2-{5-chloro-1'-[(3-chlorophenyl)methyl]-1,2-dihydrospiro[indole-3,3'-pyrrolidine]-2,2',5'-trione}acetic acid] showed a half-maximal inhibitory concentration (IC50) in assay [2] of 0.122 µM. In other words, the sub-micromolar range.
As to `O=C(O)CN1C(=O)C2(CC(=O)N(Cc3ccc(F)cc3)C2=O)c2cc(Cl)ccc21` (configuration not stated) [2-{5-chloro-1'-[(4-fluorophenyl)methyl]-1,2-dihydrospiro[indole-3,3'-pyrrolidine]-2,2',5'-trione}acetic acid], the IC50 in assay [2] stood at 0.182 µM.
